Data on ten compounds can be found in patent US9067898B1, “Isothiazole derivatives as GPR120 agonists for the treatment of type II diabetes” (Janssen Pharmaceutica NV, priority 2014, dated 2015).

The test system of one assay is C57B16 mice on a high fat diet (DIO). Briefly: GPR120 DIO mice OGTT screening. The note with it: 10 mg/kg dosed 30 min before PO glucose, change from vehicle. Also noted: DIO Lowering Glucose AUC (−30 to 90) @ 10 mg/kg: unit not given here. The class given is in vivo, mouse. Here is the method: 18-22 week old, C57B16 mice on a high fat diet (60% HFD) for 12-16 weeks (ave. body weight ˜37-41 g) were fasted for 6 hr, with removal of food occurring at 7 am on the morning of the study. The animals were sorted into treatment groups the day before the study by body weight. Animals outside the bounds of ˜30-50 g were left out of the study. The animals had been handled and shammed a total of 5-8 days (1-3 days immediately prior to the study). Glucose (in 1 mL syringes) was drawn up the morning of the study. Test compounds were kept spinning and were only drawn into 1 ml syringes prior to study commencement. Animals were bled via tail snip to determine basal glucose levels prior to dosing of treatments. An Ascensia BREEZE Blood Glucose Monitoring System by Bayer was used for determining glucose levels.
Animals were moved into the testing room at ˜9-11 am, to yield them time to acclimate. The bleeds and dosing started at approximately 1 pm in 30-second intervals per animal. All groups were dosed 30 minutes prior to glucose administration at a dose volume of 10 ml/kg (the dose volume was calculated separately for each individual animal). Test compounds were administered at one or more of the following dosages: 0.1 mg/kg, 0.3 mg/kg, 1 mg/kg, 3 mg/kg and 10 mg/kg.
Thirty minutes after the first dose (with test compound) animals were bled again for a second baseline, or T=0, and immediately dosed with glucose (20% solution; TEKNOVA, 250 ml sterile bottle w/catalogue number G0525) via a PO injection. The exact dose volume for glucose was also calculated separately for each individual animal.
Blood glucose was measured at 15, 30, 45, 60, and 90 minutes post-glucose administration via the snipped tail. If an animal reached a value of “HI”, the upper limit of the glucometer (600 mg/dl) was substituted as the blood glucose value and the study was analyzed as normal with no exclusions. If 50% or more of any treatment group reaches a “HI” value at least once, the study was considered invalid and repeated. Glucose values were typed into an EXCEL spreadsheet where they were used to calculate glucose AUC and delta AUC post-compound and post-glucose. The glucose excursion curves and the different versions of the AUC's were graphed in GraphPad Prism 5.
Note: All statistics completed in this study were completed using the statistical software package GraphPad Prism 5. Standard procedures for analyzing data sets from screening GPR120 compounds in DIO mouse OGTT's were as listed here below. In addition to the statistics that were run using GraphPad Prism 5, Microsoft Excel was used to calculate the percent changes in AUC from vehicle groups as detailed below.
Change from −30 to 0 BSLN Glucose, Raw Glucose AUC −30 to 90 min, Delta Glucose AUC −30 to 90 min, Raw Glucose AUC 0 to 90 min, Delta Glucose AUC 0 to 90 min were analyzed using Column Statistics Analysis, with mean values used to calculate % change from the vehicle mean group, as well as mean, SEM and/or % change from vehicle, where appropriate; and using One-Way ANOVA w/a Tukey Post-Test (Comparing All Pairs of Columns) with each treatment group examined to see if it was statistically significant compared to vehicle (*=P<0.05, **=P<0.01, ***=P<0.001).
Representative compounds of the present invention were tested according to the procedure as described in Biological Example 3, with results as listed in Table 2, below. Where a compound was tested more than once, each result is listed individually.
For the compound “3-(4-[[3-(4-ethylphenyl)-5-(trifluoromethyl)-1,2-thiazol-4-yl]methoxy]-3,5-difluorophenyl)propanoic acid [Cpd 70]”, the “DIO Lowering Glucose AUC (−30 to 90) @ 10 mg/kg” value (from here on “DIO Lowering Glucose AUC”) is listed as −0.5. With `Cc1ccc(-c2nsc(C(F)(F)F)c2COc2c(F)cc(CCC(=O)O)cc2F)c(F)c1` [Cpd 65, 3-(3,5-difluoro-4-[[3-(2-fluoro-4-methylphenyl)-5-(trifluoromethyl)-1,2-thiazol-4-yl]methoxy]phenyl)propanoic acid], the “DIO Lowering Glucose AUC” value is on record as −0.61. Consider `O=C(O)CCc1cc(F)c(OCc2c(-c3ccc(Cl)c(F)c3)nsc2C(F)(F)F)c(F)c1` [Cpd 67, 3-(4-((3-(4-chloro-3-fluorophenyl)-5-(trifluoromethyl)isothiazol-4-yl)methoxy)-3,5-difluorophenyl)propanoic acid], for which the “DIO Lowering Glucose AUC” value is recorded as −0.78.

As to `O=C(O)CCc1cc(F)c(OCc2c(C3CCCC3)nsc2C(F)(F)F)c(F)c1` [Cpd 71, 3-(4-[[3-cyclopentyl-5-(trifluoromethyl)-1,2-thiazol-4-yl]methoxy]-3,5-difluorophenyl)propanoic acid], the “DIO Lowering Glucose AUC” value is −0.52. On to `CCc1ccc(-c2nsc(C(F)(F)F)c2COc2ccc(CCC(=O)O)c(F)c2F)cc1` [Cpd 73, 3-(4-((3-(4-ethylphenyl)-5-(trifluoromethyl)isothiazol-4-yl)methoxy)-2,3-difluorophenyl)propanoic acid], for which the “DIO Lowering Glucose AUC” value is −0.51. Same read-out and setting: next, `O=C(O)CCc1cc(F)c(OCc2c(-c3ccc(Cl)cc3F)nsc2C(F)(F)F)c(F)c1` [Cpd 74, 3-(4-((3-(4-chloro-2-fluorophenyl)-5-(trifluoromethyl)isothiazol-4-yl)methoxy)-3,5-difluorophenyl)propanoic acid]: −0.71; `Cc1ccc(-c2nsc(C(F)(F)F)c2COc2c(F)cc(CC(C)C(=O)O)cc2F)c(F)c1` (stereo not shown) [Cpd 76, 3-(3,5-difluoro-4-[[3-(2-fluoro-4-methylphenyl)-5-(trifluoromethyl)-1,2-thiazol-4-yl]methoxy]phenyl)-2-methylpropanoic acid]: −0.8.

Still in this assay, the particulars now being: Mus musculus, read-out: DIO Lowering Glucose AUC (−30 to 90) @ 10 mg/kg, heading: DIO Lowering Glucose AUC @ 10 mg/kg, 10 mg/kg dosed 30 min before PO glucose, change from vehicle.
Turning to `CCc1ccc(-c2cc(F)sc2COc2ccc(CCC(=O)O)c(C)c2C)cc1` [Cpd 1, 3-(4-[[3-(4-ethylphenyl)-5-fluorothiophen-2-yl]methoxy]-2,3-dimethylphenyl)propanoic acid], the change in vivo at 10 mg/kg was -26%. On the same count and under the same terms, next, `Cc1c(CCC(=O)O)ccc(OCc2sc(F)cc2-c2ccc(Cl)cc2)c1C` [Cpd 3, 3-(4-((3-(4-chlorophenyl)-5-fluorothiophen-2-yl)methoxy)-2,3-dimethylphenyl)propanoic acid]: -49%.

Another assay relates to C57bl/6J mice. Briefly: GPR120 C57bl6 mouse IPGTT. Type of assay: in vivo. The note with it: 10 mg/kg dosed 30 min before glucose IP 1.5 g/kg. As for the experimental part: Male, C57bl/6J Mice were ordered in at 8 weeks of age from Jackson Labs. Individual mice weighed anywhere in the range of 25-30 grams on study day. The mice were fasted, with removal of food occurring at 7 am on the morning of the study. Animals were moved into the room at 10:00 am, to give them time to acclimate. Glucose (insulin syringes) was drawn up either the night before or the morning of the study. Glucose was dosed (IP) at 1.5 g/kg at 7.5 ml/kg (20% glucose straight TEKNOVA, 250 ml sterile bottle w/catalogue number G0525). Test compounds were kept spinning and were only drawn into the syringes prior to study commencement. Animals were bled via tail snip to determine basal glucose levels prior to dosing of treatments. An Ascensia BREEZE Blood Glucose Monitoring System by Bayer (using unique 10-test disks) was used for determining glucose levels. The bleeds started at approximately 12:45 pm and dosing started, at 1-minute intervals, immediately after. All groups were dosed 30 minutes prior to glucose administration at a dose volume of 10 ml/kg (the dose volume was calculated separately for each individual animal). Thirty minutes after the first dose animals were bled again for a second baseline, or T=0, and immediately dosed with glucose via an i.p. injection. The exact dose volume for glucose was also calculated separately for each individual animal. […]
Regarding “3-(4-[[3-(4-ethylphenyl)-5-(trifluoromethyl)-1,2-thiazol-4-yl]methoxy]-1-benzothiophen-7-yl)propanoic acid [Cpd 92]”, the “C57 IPGTT 10 mg/kg” value is listed as −41.
